# Reference: patent US20240091242A1, “LIPIDS THAT REDUCE LUNG DAMAGE, IMPROVE PULMONARY FUNCTION AND DECREASE PRO-INFLAMMATORY CYTOKINES” (Signpath Pharma, Inc., priority 2021, published 2024)
# Key:
# murine LPS ARDS model = assay: Overall efficacy in the murine LPS ARDS model; format: in vivo, mouse
# Method: To investigate the role of the lipids of the present invention, such as SPPCT-800, as a treatment for ARDS, the inventors used a murine LPS model to measure histologic changes, lung and body weights, oxygen blood saturations and other pulmonary function parameters, BALF protein and cell counts, and pro-inflammatory cytokine levels in the plasma and BALF.
# In the ARDS group, mice received Escherichia coli O111:B4 lipopolysaccharide (50 μg in 0.05 mL saline, i.t.), while, in the control group, the animals received an instillation of saline (0.05 mL, i.t.). For intratracheal instillation, mice were slightly anesthetized with isoflurane.
# The lipid SPPCT-800 was dissolved in water (low dose—2 mg/ml; high dose—20 mg/ml). For the 24-hour study, two treatment approaches were used. Mice received a single dose of SPPCT-800 (200 mg/kg, per gavage) as prevention (30 minutes before the LPS instillation), or as a single dose of either 20 mg/kg or 200 mg/kg as therapy (3-hour after the LPS instillation). For the 72-hour study, mice received a total of 8 treatments of SPPCT-800 (200 mg/kg) starting at 3-hour after the LPS instillation. Disease progression in mice was assessed by the evaluation of pulmonary functions, blood oxygen saturation, and body weight change. […]
# [1] = Detectable activity after a single dose; format: in vivo
smiles,measurement,setting,value
CCCCCCCCCCCCCC(=O)OCC(COP(=O)([O-])OCC(COC(=O)CCC)OC(=O)CCC)OC(=O)CCCCCCCCCCCCC.CCCCCCCCCCCCCC(=O)OCC(COP(=O)([O-])OCC(COC(=O)CCC)OC(=O)CCC)OC(=O)CCCCCCCCCCCCC.[Mg+2] (stereo not drawn) [SPPCT-800],efficacy against ARDS,"murine LPS ARDS model; all three studies, best results in the 72-hour study",effective
same,severe damage to the lung,"murine LPS ARDS model; single dose of 200 mg/kg, given 30 minutes before LPS challenge",significantly reduces
same,single dose with detectable activity,[1],1 mg/kg
